The nature of the series: Particle size distribution of micronized escitalopram oxalate batches (laser light diffraction, Malvern instrument). In kind it is physicochemical. The following applies: micronized powder; for D50/D95: ratio of D50 to D95; for D50: size below which 50 volume percent of particles lie; for D50 / D95: Malvern instrument; for D95: size below which 95 volume percent of particles lie. An excerpt: The term D95 as used herein is defined as a size of particles where 95 volume percent of the particles have sizes less than the value given. The term D50 defines a size where 50 volume percent of the particles have sizes less than the value given.
The particle size distributions for the present application can measured using laser light diffraction equipment, such as are sold by Malvern Instruments Ltd., Malvern, Worcestershire, United Kingdom. Other types of equipment are also suitable for particle size distribution determinations.
The obtained solid was micronized in a jet mill to produce desired particle sizes. The feed pressure was adjusted to about 2 Kg/cm^2; the chamber pressure was adjusted to about 1.5 Kg/cm^2 and the feed rate to about 1 to 2 kg/hour. The material fed into the micronizer through a charging hopper. The obtained micronized material was collected into a container.

Counter-ions that a name gives are not always drawn.

Turning to `CN(C)CCCC1(c2ccc(F)cc2)OCc2cc(C#N)ccc21` (stereo not drawn) [Batch 1, S-(+)-1-[3-(dimethyl-amino)propyl]-1-(p-fluorophenyl)-5-phthalancarbonitrile oxalate], under “listed as 1”, the D50/D95 came to 0.4293, the D50 is on record as 3.95 and the D95 came to 9.20.
`CN(C)CCCC1(c2ccc(F)cc2)OCc2cc(C#N)ccc21` (stereo not drawn) [Batch 2, S-(+)-1-[3-(dimethyl-amino)propyl]-1-(p-fluorophenyl)-5-phthalancarbonitrile oxalate]: where the note is “listed as 2”, the D50/D95 came out at 0.4653, the D50 is given as 4.56 and the D95 is 9.80.

Source of the values: patent US20090048336A1, “ESCITALOPRAM OXALATE POWDERS” (priority 2007, published 2009).
